Laboratory results published in patent US20240067651A1 (Biohaven Therapeutics Ltd., priority 2019, published 2024).

Tests used:
[1] = Stability in Simulated Gastric Fluid (SGF); type: in vitro ADME; parameters: key: % parent compound remaining relative to 0-minute sample; settings: % remaining @ 1 h
Outline: (§1)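 Percent parent compound remaining, by LC-MS/MS against the 0-minute sample, is reported after incubation at 2 μg/mL (final) in pepsin-containing SGF at pH 1.2 or pancreatin-containing SIF at pH 6.8. Incubations run at 37° C for up to 60 minutes.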

[2] = Caco-2 Permeability Assay; type: in vitro ADME, human; settings: human, Caco-2, pH 7.4
Outline: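 Caco-2 monolayers cultured 21 days (TEER >600 […]); test article at 10 μM in HBSS/HEPES pH 7.4 transport medium, dosed apical or basolateral, ±Pgp inhibitor. Incubated 90 min at 37 °C; both compartments quantified by LC-MS/MS. Papp (A→B, B→A), efflux ratio and % recovery calculated.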

[3] = Stability in Simulated Intestinal Fluid (SIF); type: in vitro ADME; parameters: key: % parent compound remaining relative to 0-minute sample; settings: % remaining @ 1 h
Outline: as §1

Plasma Stability = type: in vitro ADME, human; settings: % remaining @ 1 h
Outline: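 Compounds incubated at 1 μM in fresh human plasma for 1 hour at 37° C, then protein-precipitated with acetonitrile/formic acid containing internal standard. Remaining parent measured by LC-MS/MS in triplicate, expressed as percent of control remaining.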

| SMILES | SGF [1] [% @ 1 h] | Papp at 90 min, 10 µM [2] [×10⁻⁶ cm/s] | SIF [3] [% @ 1 h] | human Plasma stability (Plasma Stability) [% @ 1 h] |
| --- | --- | --- | --- | --- |
| CC(C)OCCn1c(=S)[nH]c(=O)c2c1ccn2COC(=O)[C@@H](N)C(C)C.O=C(O)C(F)(F)F [Example 296, trifluoroacetic acid {4-oxo-1-[2-(propan-2-yloxy)ethyl]-2-sulfanylidene-1H,2H,3H,4H,5H-pyrrolo[3,2-d]pyrimidin-5-yl}methyl (2S)-2-amino-3-methylbutanoate] | 97 | 1.18 | 43 | 12 |
| CC(C)OCCn1c(=S)n(COC(=O)[C@@H](N)C(C)C)c(=O)c2c1ccn2COC(=O)[C@@H](N)C(C)C.O=C(O)C(F)(F)F.O=C(O)C(F)(F)F [Example 297, bis(trifluoroacetic acid) [3-({[(2S)-2-amino-3-methylbutanoyl]oxy}methyl)-4-oxo-1-[2-(propan-2-yloxy)ethyl]-2-sulfanylidene-1H,2H,3H,4H,5H-pyrrolo[3,2-d]pyrimidin-5-yl]methyl (2S)-2-amino-3-methylbutanoate] | 100 | 0.462 | 6 | 6 |
| CC(C)OCCn1c(=S)[nH]c(=O)c2c1ccn2COC(=O)[C@H](NC(=O)OC(C)(C)C)C(C)C [Example 298, {4-oxo-1-[2-(propan-2-yloxy)ethyl]-2-sulfanylidene-1H,2H,3H,4H,5H-pyrrolo[3,2-d]pyrimidin-5-yl}methyl (2R)-2-{[(tert-butoxy)carbonyl]amino}-3-methylbutanoate] | 99 | 33.5 | 59 | 99 |
| CC(C)OCCn1c(SCOC(=O)[C@H](NC(=O)OC(C)(C)C)C(C)C)nc(=O)c2c1ccn2COC(=O)[C@H](NC(=O)OC(C)(C)C)C(C)C [Example 299, {[5-({[(2R)-2-{[(tert-butoxy)carbonyl]amino}-3-methylbutanoyl]oxy}methyl)-4-oxo-1-[2-(propan-2-yloxy)ethyl]-1H,4H,5H-pyrrolo[3,2-d]pyrimidin-2-yl]sulfanyl}methyl (2R)-2-{[(tert-butoxy)carbonyl]amino}-3-methylbutanoate] | 54 | 15.8 | 27 | 94 |
| CC(C)OCCn1c(=S)[nH]c(=O)c2c1ccn2COC(=O)[C@H](N)C(C)C [Example 300, trifluoroacetic acid {4-oxo-1-[2-(propan-2-yloxy)ethyl]-2-sulfanylidene-1H,2H,3H,4H,5H-pyrrolo[3,2-d]pyrimidin-5-yl}methyl (2R)-2-amino-3-methylbutanoate] | 100 | 12.9 | 70 | 2 |
| CC(C)OCCn1c(=S)n(COC(=O)[C@H](N)C(C)C)c(=O)c2c1ccn2COC(=O)[C@H](N)C(C)C.O=C(O)C(F)(F)F.O=C(O)C(F)(F)F [Example 301, bis(trifluoroacetic acid) [3-({[(2R)-2-amino-3-methylbutanoyl]oxy}methyl)-4-oxo-1-[2-(propan-2-yloxy)ethyl]-2-sulfanylidene-1H,2H,3H,4H,5H-pyrrolo [3,2-d]pyrimidin-5-yl]methyl (2R)-2-amino-3-methylbutanoate] | 97 | 1.72 | 10 | 5 |
| CC(C)OCCn1c(=S)[nH]c(=O)c2c1ccn2COC(=O)[C@H](Cc1ccccc1)NC(=O)OC(C)(C)C [Example 302, {4-oxo-1-[2-(propan-2-yloxy)ethyl]-2-sulfanylidene-1H,2H,3H,4H,5H-pyrrolo[3,2-d]pyrimidin-5-yl}methyl (2S)-2-{[(tert-butoxy)carbonyl]amino}-3-phenylpropanoate] | 97 | 4.48 | 5 | 67 |
| CC(C)OCCn1c(SCOC(=O)[C@H](Cc2ccccc2)NC(=O)OC(C)(C)C)nc(=O)c2c1ccn2COC(=O)[C@H](Cc1ccccc1)NC(=O)OC(C)(C)C [Example 303, {[5-({[(2S)-2-{[(tert-butoxy)carbonyl]amino}-3-phenylpropanoyl]oxy}methyl)-4-oxo-1-[2-(propan-2-yloxy)ethyl]-1H,4H,5H-pyrrolo[3,2-d]pyrimidin-2-yl]sulfanyl}methyl (2S)-2-{[(tert-butoxy)carbonyl]amino}-3-phenylpropanoate] | 46 | 5.56 | 1 | 28 |
| CC(C)OCCn1c(=S)n(COC(=O)[C@H](Cc2ccccc2)NC(=O)OC(C)(C)C)c(=O)c2c1ccn2COC(=O)[C@H](Cc1ccccc1)NC(=O)OC(C)(C)C [Example 304, [3-({[(2S)-2-{[(tert-butoxy)carbonyl]amino}-3-phenylpropanoyl]oxy}methyl)-4-oxo-1-[2-(propan-2-yloxy)ethyl]-2-sulfanylidene-1H,2H,3H,4H,5H-pyrrolo[3,2-d]pyrimidin-5-yl]methyl (2S)-2-{[(tert-butoxy)carbonyl]amino}-3-phenylpropanoate] | 44 | 0.34 | 67 | 99 |
| CC(C)OCCn1c(=S)[nH]c(=O)c2c1ccn2COC(=O)[C@@H](Cc1ccccc1)NC(=O)OC(C)(C)C [Example 305, {4-oxo-1-[2-(propan-2-yloxy)ethyl]-2-sulfanylidene-1H,2H,3H,4H,5H-pyrrolo [3,2-d]pyrimidin-5-yl}methyl (2R)-2-{[(tert-butoxy)carbonyl]amino}-3-phenylpropanoate] | 73 | 3.84 | 1 | 39 |
| CC(C)OCCn1c(SCOC(=O)[C@@H](Cc2ccccc2)NC(=O)OC(C)(C)C)nc(=O)c2c1ccn2COC(=O)[C@@H](Cc1ccccc1)NC(=O)OC(C)(C)C [Example 306, {[5-({[(2R)-2-{[(tert-butoxy)carbonyl]amino}-3-phenylpropanoyl]oxy}methyl)-4-oxo-1-[2-(propan-2-yloxy)ethyl]-1H,4H,5H-pyrrolo[3,2-d]pyrimidin-2-yl]sulfanyl}methyl (2R)-2-{[(tert-butoxy)carbonyl]amino}-3-phenylpropanoate] | 41 | 3.8 | 1 | 72 |
| CC(C)OCCn1c(=S)n(COC(=O)[C@@H](Cc2ccccc2)NC(=O)OC(C)(C)C)c(=O)c2c1ccn2COC(=O)[C@@H](Cc1ccccc1)NC(=O)OC(C)(C)C [Example 307, [3-({[(2R)-2-{[(tert-butoxy)carbonyl]amino}-3-phenylpropanoyl]oxy}methyl)-4-oxo-1-[2-(propan-2-yloxy)ethyl]-2-sulfanylidene-1H,2H,3H,4H,5H-pyrrolo[3,2-d]pyrimidin-5-yl]methyl (2R)-2-{[(tert-butoxy)carbonyl]amino}-3-phenylpropanoate] | 26 | 0.334 | 43 | 99 |
| CC(C)OCCn1c(=S)[nH]c(=O)c2c1ccn2COC(=O)[C@@H](N)Cc1ccccc1.O=C(O)C(F)(F)F [Example 308, trifluoroacetic acid {4-oxo-1-[2-(propan-2-yloxy)ethyl]-2-sulfanylidene-1H,2H,3H,4H,5H-pyrrolo[3,2-d]pyrimidin-5-yl}methyl (2S)-2-amino-3-phenylpropanoate] | 97 | < 0.364 | 44 | 2.5 |
| CC(C)OCCn1c(SCOC(=O)[C@@H](N)Cc2ccccc2)nc(=O)c2c1ccn2COC(=O)[C@@H](N)Cc1ccccc1.O=C(O)C(F)(F)F.O=C(O)C(F)(F)F [Example 309, bis(trifluoroacetic acid) {[5-({[(2S)-2-amino-3-phenylpropanoyl]oxy}methyl)-4-oxo-1-[2-(propan-2-yloxy)ethyl]-1H,4H,5H-pyrrolo[3,2-d]pyrimidin-2-yl]sulfanyl}methyl (2S)-2-amino-3-phenylpropanoate] | 98 | < 0.123 | 86 | 5 |
| CC(C)OCCn1c(=S)[nH]c(=O)c2c1ccn2COC(=O)[C@H](N)Cc1ccccc1.O=C(O)C(F)(F)F [Example 311, trifluoroacetic acid {4-oxo-1-[2-(propan-2-yloxy)ethyl]-2-sulfanylidene-1H,2H,3H,4H,5H-pyrrolo[3,2-d]pyrimidin-5-yl}methyl (2R)-2-amino-3-phenylpropanoate] | 98 | 5.44 | 7 | 4 |
| CC(C)OCCn1c(=S)n(COC(=O)[C@H](N)Cc2ccccc2)c(=O)c2c1ccn2COC(=O)[C@H](N)Cc1ccccc1.O=C(O)C(F)(F)F.O=C(O)C(F)(F)F [Example 313, bis(trifluoroacetic acid) [3-({[(2R)-2-amino-3-phenylpropanoyl]oxy}methyl)-4-oxo-1-[2-(propan-2-yloxy)ethyl]-2-sulfanylidene-1H,2H,3H,4H,5H-pyrrolo[3,2-d]pyrimidin-5-yl]methyl (2R)-2-amino-3-phenylpropanoate] | 88 | 0.49 | 51 | 99 |
